Measurements as given in patent US20110190492A1, “DIAGNOSTIC PROBE FOR CONFORMATION DISEASE” (TOHOKU UNIVERSITY, priority 2005, published 2011).

Assays:
[1] = target: T1, amyloid β protein (Homo sapiens, UniProt P05067); experiment: Staining test on a brain section of an Alzheimer disease patient (amyloid β protein); assay type: binding, human (Alzheimer disease patient); settings: 100 μM compound in 50% ethanol, 10 minutes, fluorescence microscopy
T1 construct: from tissue; host or cells: paraffin-embedded human brain sections (temporal lobe, hippocampus) of Alzheimer disease patients
T1 sequence (P05067 672-713 limits assumed): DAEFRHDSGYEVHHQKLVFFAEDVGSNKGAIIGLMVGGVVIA
From the text: (1) Brain specimens at the temporal lobe and the hippocampus of patients to which a definitive diagnosis of Alzheimer disease had been given, and those of normal senile persons were used. The specimens were given by our coworker, Fukushimura Hospital, Longevity Medicine Institute, and we were given their consent of use of the specimens for our study purpose by the bereaved of the patients (Fukushimura Hospital Ethical Review Board Approval No. 20).
(2) The paraffin-embedded brain tissue was cut into slices having a thickness of 6 μm or 8 μm, and extended and dried on a slide. The paraffin brain section was processed for paraffin removal in xylene twice for 10 minutes, 100% ethanol twice for 5 minutes, 90% ethanol for 5 minutes and running water for 10 minutes in that order.
(3) For pretreatment prior to the staining treatment with a compound of the invention, the sections were processed for autofluorescence removal with lipofuscin. First, the paraffin-removed sections were dipped in 0.25% KMnO4 solution for 20 minutes. These were washed with PBS, twice for 2 minutes, then dipped in 0.1% K2S2O5/oxalic acid solution for about 5 seconds, and then further washed with PBS, three times for 2 minutes.
(4) About 150 μl of a 100 μM solution of a compound of the invention dissolved in 50% ethanol was dropwise applied to the section and reacted for 10 minutes. After dipped five times in tap water, the section was entrapped with Fluor Save Reagent (Calbiochem), and analyzed through microscopy with a fluorescence microscope (Nikon, Eclipse 80i). The images were taken with a digital camera (Nikon Dxm 1200F or Photometrics' Cool SNAP ES).

[2] = system: histidine-requiring Salmonella typhimurium TA100 and TA98 strains; experiment: Mutagenicity test (reverse mutation test); assay type: cell-based
Procedure: In view of their use, it is desirable that the compounds of the invention have no mutagenicity or have little mutagenicity to a level causing no problem. For investigating the gene mutagenesis of the compounds of the invention, herein carried out was a reverse mutation test with histidine-requiring Salmonella typhimurium TA100 and TA98 strains. Two tests were carried out. One is a test for dose determination test; and the other is for mutagenicity.
The test methods and the mutagenicity of the compounds of the invention are mentioned below. In the dose determination test, six doses of 0.160, 0.800, 4.00, 20.0, 100 and 500 μg/plate (common ratio 5) were tried.
As a result of the dose determination test, when the mutagenicity of the test compound was admitted, then the actual test for mutagenicity was carried out, using the dose capable of giving an accurate dose-reaction curve. When no mutagenicity of the test compound was admitted in the dose determination test and when the growth inhibition of the test cells was admitted therein, then the dose to present the growth inhibition was taken as the maximum dose; and when the growth inhibition was not admitted, then a dose of 5000 μg/plate was taken as the maximum dose. With that, the actual test for mutagenicity was carried out on the level of 6 doses (common ratio 2).
First, a test compound was dissolved or suspended in DMSO, then diluted in order to prepare test compound liquids having a varying concentration.
100 μl of a test compound liquid or a negative control (DMSO) solution was put into a sterilized test tube. Then, for the case in the absence of a metabolic activation system (−S9mix), 500 μl of 0.1 mol/liter sodium-phosphate buffer (pH 7.4) was added to it; and for the case in the presence of a metabolic activation system (+S9mix), 500 μl of S9mix was added to it.
Next, 100 μl of the test strain suspension that had been cultivated with shaking at 37° C. for 8 hours was added to it, and preincubated in a shaking thermostat at 37° C. for 20 minutes. After shaken, 2 ml of top agar was added to it, and the contents were mixed.
Next, the mixture was poured onto a minimal glucose agar plate medium (plate) and spread uniformly thereon, then the top agar was solidified, and the plate was transferred into a thermostat and incubated at 37° C. for 48 hours.
Then, the number of the colonies grown through reverse mutation was counted.
For counting it, […]. After area correction and miss-counting correction, the number of the colonies was computed. When the colony analyzer could not be used owing to the deposition of the test compound or the cell growth inhibition, then the number of the colonies was counted with the naked eye.
In case where the number of the colonies through reverse mutation increased two times or more that of the negative control and where the dose dependency or the reproducibility of the increase was admitted, then the tested sample was decided as positive. When the sample was decided as positive, then the relative activity that indicates the relative comparative value of the intensity of the mutagenicity of the test compound was obtained according to the following formula:
Relative Activity={(number of colonies per plate having the concentration)−(number of colonies per negative control plate)}/the value of concentration (mg/plate).

[3] = Acute toxicity test, intravenous administration to mice; assay type: in vivo; settings: mice observed for 7 days
Procedure: The compounds of the invention were tested for their acute toxicity through intravenous administration thereof to mice. Four Crj:CD1 male mice formed one test group, and some test groups of those mice were used (the mean body weight of the mice of each group was from 31 to 32 g). A test compound was dissolved in a mixture of 1 N HCl, polyethylene glycol-400 and distilled water, or dissolved in DMSO, and then diluted with distilled water. This was administered to each mouse via its tail vein.

[4] = irrespective of the absence or presence of S9mix

Row | binding to amyloid β protein in the brain section of an Alzheimer disease patient [1] | Structure (SMILES) | further results
1 | bound to the amyloid β protein | N#C/C(=C\c1ccc(N2CCOCC2)o1)c1nc2ccccc2[nH]1 [THK-203, 2-(1H-benzimidazol-2-yl)-3-(5-morpholin-4-yl-furan-2-yl)-acrylonitrile] | 
2 | bound to the amyloid β protein | CN1CCN(c2ccc(/C=C(\C#N)c3nc4ccccc4[nH]3)o2)CC1 [THK-207, 2-(1H-benzimidazol-2-yl)-3-[5-(4-methyl-piperazin-1-yl)-furan-2-yl]-acrylonitrile] | 
3 | bound to the amyloid β protein | CN(C)c1ccc(/C=C\C=C2C(=O)c3ccccc3C2=O)cc1 [THK-248, 2-[3-(4-dimethylamino-phenyl)-allylidene]-indane-1,3-dione] | 
4 | bound to the amyloid β protein | O=C1Nc2ccc(Cl)cc2/C1=C/c1ccc(N2CCOCC2)cc1 [THK-276, 5-chloro-3-(4-morpholin-4-yl-benzylidene)-1,3-dihydroindol-2-one] | 
5 | bound to the amyloid β protein | C(=C\c1nc2c(ccc3ccccc32)s1)/c1ccc(N2CCOCC2)cc1 [THK-281, 2-[2-(4-morpholin-4-yl-phenyl)-vinyl]naphthol[1,2-d]thiazole] | 
6 | bound to the amyloid β protein | O=C1Nc2ccc(Cl)cc2/C1=C/c1ccc(N2CCOCC2)s1 [THK-308, 5-chloro-3-(5-morpholin-4-yl-thiophen-2-ylmethylene)-1,3-dihydroindol-2-one] | 
7 | bound to the amyloid β protein | c1csc(-c2nnc(-c3ccc(N4CCOCC4)cc3)o2)c1 [THK-383, 4-[4-(5-thiophen-2-yl-[1,3,4]oxadiazol-2-yl)-phenyl]-morpholine] | 
8 | bound to the amyloid β protein | COc1ccccc1-c1nnc(-c2ccc(N3CCOCC3)cc2)o1 [THK-385] | 
9 | bound to the amyloid β protein | CN(C)c1ccc(/C=C/C23NC(=O)CN2c2ccc(Br)cc2C3(C)C)cc1 (centres unmarked) [THK-556, 7-bromo-9a-[2-(4-dimethylamino-phenyl)-vinyl]-9,9-dimethyl-9,9a-dihydro-1H-imidazo[1,2-a]indol-2-one] | 
10 | bound to the amyloid β protein | CN(C)c1ccc(/C=C/C23NC(=O)CCN2c2ccc(Br)cc2C3(C)C)cc1 (centres unmarked) [THK-558, 8-bromo-10a-[2-(4-dimethylamino-phenyl)-vinyl]-10,10-dimethyl 1-3,4,10,10a-tetrahydro-1H-pyrimido[1,2-a]indol-2-one] | 
11 | bound to the amyloid β protein | CC1CN2c3ccccc3C(C)(C)C2(/C=C/c2ccc(N(C)C)cc2)NC1=O (centres unmarked) [THK-559, 10a-[2-(4-dimethylamino-phenyl)-vinyl]-3,10,10-trimethyl-3,4,10,10a-tetrahydro-1H-pyrimido[1,2-a]indol-2-one] | 
12 | bound to the amyloid β protein | CN(C)c1ccc(/C=C/C23NC(=O)CN2c2ccccc2C3(C)C)cc1 (centres unmarked) [THK-562] | 
13 | bound to the amyloid β protein | CCN(CC)c1ccc(/C=C/C23NC(=O)CN2c2ccccc2C3(C)C)cc1 (centres unmarked) [THK-563] | 

The remaining lines, values behind:

Row | Structure (SMILES) | binding to amyloid β protein in the brain section of an Alzheimer disease patient [1] | further results
14 | Cc1ccc2c(c1)C(C)(C)[C@@]1(/C=C/C=C/c3ccc(N(C)C)cc3)NC(=O)CCN21 (stereo in doubt) [THK-585, 10a-[4-(4-dimethylamino-phenyl)-buta-1,3-dienyl]-8,10,10-trimethyl-3,4,10,10a-tetrahydro-1H-pyrimido[1,2-a]indol-2-one] | bound to the amyloid β protein | 
15 | CN(C)c1ccc(-c2nnc(-c3sc4cc(Cl)ccc4c3Cl)o2)cc1 [THK-262, [4-[5-(3,6-dichloro-benzo[b]thiophen-2-yl)-[1,3,4]oxadiazol-2-yl]-phenyl]-dimethylamine] | bound to the amyloid β protein | 
16 | CC1(C)c2ccccc2N2CCC(=O)NC21/C=C/c1ccc(N2CCOCC2)cc1 (centres unmarked) [THK-336] |  | relative activity [2, 4]: minus
17 | FCCOc1ccc2nc(/C=C/c3cnc(N4CCOCC4)s3)oc2c1 [THK-525, 6-(2-fluoro-ethoxy)-2-[2-(2-morpholin-4-yl-thiazol-5-yl)-vinyl]-benzoxazole] | bound to the amyloid β protein | relative activity [2, 4]: minus; Maximum Permissible Dose [3]: ≧10 mg/kg
18 | Cc1ccc2c(c1)C(C)(C)C1(/C=C/C=C/c3ccc(N(C)C)cc3)NC(=O)CCN21 (centres unmarked) [THK-565, 10a-[4-(4-dimethylamino-phenyl)-buta-1,3-dienyl]-8,10,10-trimethyl-3,4,10,10a-tetrahydro-1H-pyrimido[1,2-a]indol-2-one] | bound to the amyloid β protein | 
19 | N#CC(C#N)=Cc1ncc(/C=C/c2nc3ccc(OCC(CO)CF)cc3o2)s1 (centres unmarked) [THK-683] |  | relative activity [2, 4]: minus
20 | CN1CCN(c2ncc(/C=C/c3nc4ccc(OC(CO)CF)cc4o3)s2)CC1 (centres unmarked) [THK-707, (E)-6-[(1-fluoromethyl-2-hydroxy)ethoxy]-2-[2-[2-(4-methylpiperazin-1-yl)thiazol-5-yl]ethenyl]benzoxazole] |  | relative activity ([2]; in the presence of S9mix): weak; Maximum Permissible Dose [3]: ≧10 mg/kg
21 | OCC(CF)Oc1ccc2nc(/C=C/c3cnc(N4CCCCC4)s3)oc2c1 (centres unmarked) [THK-713] |  | relative activity [2, 4]: minus; Maximum Permissible Dose [3]: ≧10 mg/kg
22 | OCC(CF)Oc1ccc2nc(/C=C/c3cnc(N4CCCC4)s3)oc2c1 (centres unmarked) [THK-752, (E)-6-[(1-fluoromethyl-2-hydroxy)ethoxy]-2-[2-[2-(pyrrolidin-1-yl)-thiazol-5-yl]ethenyl]benzoxazole] | The white space arrow indicates amyloid β protein | relative activity [2, 4]: minus; Maximum Permissible Dose [3]: ≧10 mg/kg
23 | OCC(CF)Oc1ccc2nc(/C=C/c3cnc(N4CCCOC4)s3)oc2c1 (centres unmarked) [THK-757, (E)-6-[(1-fluoromethyl-2-hydroxy)ethoxy]-2-[2-[2-([1,3]oxadinan-3-yl)-thiazol-5-yl]ethenyl]benzoxazole] |  | Maximum Permissible Dose [3]: ≧10 mg/kg
24 | OCC(CF)Oc1ccc2nc(/C=C/c3cnc(N4CCCCCC4)s3)oc2c1 (centres unmarked) [THK-765, (E)-6-[(1-fluoromethyl-2-hydroxy)ethoxy]-2-[2-[2-(homopiperidin-1-yl)thiazol-5-yl]ethenyl]benzoxazole] |  | Maximum Permissible Dose [3]: ≧10 mg/kg
25 | OCC(CF)Oc1ccc2nc(/C=C/c3cnc(N4CCCOCC4)s3)oc2c1 (centres unmarked) [THK-766, (E)-6-[(1-fluoromethyl-2-hydroxy)ethoxy]-2-[2-(2-homomorpholinothiazol-5-yl)ethenyl]benzoxazole] | The white space arrow indicates amyloid β protein | Maximum Permissible Dose [3]: ≧10 mg/kg
